What all share (test): NCI anticancer screen, dose series, 48 h
Assay [1] relates to CCRF-CEM.
Assay [2] relates to COLO 205.
For assay [3], the system named is HOP-62.
Assay [4] deals with IGROV-1.
Assay [5] has as its system K562.
The test system of assay [6] is M14.
The subject of assay [7] is MOLT-4.
Assay [8] relates to NCI-H23.
The subject of assay [9] is NCI-H460.
In assay [10] the test system is NCI-H522.
Assay [11] concerns NCI/ADR-RES.
Assay [12] deals with RPMI-8226.
Assay [13] deals with SK-MEL-2.
Assay [14] relates to SK-OV-3.
The subject of assay [15] is SN12C.
Assay [16] relates to SNB-75.
The test system of assay [17] is SW-620.
The test system of assay [18] is UACC-257.
The test system of assay [19] is A498.
In assay [20] the test system is SF-539.

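Following 48 hours of exposure in 96-well plates, responses at five concentrations were used to interpolate endpoints linearly. The concentration for 50% growth inhibition is given as GI50.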 Calls of active or inactive are those of the source. No stated cut-off is given here; in the data, active = GI50 up to about 1.1 µM and inactive = higher.

Experimental findings from ChEMBL document CHEMBL1201862, “PubChem BioAssay data set” (2004) are described below.

Regarding `CSCCC(NOC(=O)Cc1ccccc1)P(=O)(O)c1ccccc1` (stereo unspecified), the GI50 in assay [1], in assay [2], in assay [3], in [4], in assay [5] and in assay [6] was > 100 µM (inactive) each time. The GI50 in [7], in assay [8], in [9], in [10], in assay [11] and in assay [12] was > 100 µM (inactive) each time. In addition, the GI50 in assay [13], in assay [14], in [15], in assay [16], in assay [17] and in assay [18] was > 100 µM (inactive) each time.
Take `COc1ccc2c(c1)c1c(n2CCN2CCCCC2)-c2cccc(OC)c2CC1`: the GI50 in assay [19] is 20.1 µM (inactive); in assay [1] it was 4.27 µM (inactive); in assay [2], 16.7 µM (inactive); in assay [3], 16.7 µM (inactive); in assay [4], 13.4 µM (inactive); in [5], 9.04 µM (inactive). Also, the GI50 in [6] was 12 µM (inactive); in assay [7] it was 16.4 µM (inactive); in assay [8], 14.8 µM (inactive); in assay [9], 19.9 µM (inactive); in [10], 3.82 µM (inactive); in [11] it was 18.7 µM (inactive). In addition, the GI50 was 11.5 µM (inactive) in assay [12]; 17.4 µM (inactive) in [13]; 33.4 µM (inactive) in assay [14]; 14.9 µM (inactive) in assay [15]; 18.5 µM (inactive) in assay [16]; 16.7 µM (inactive) in assay [17]. Further, the GI50 in assay [18] was 18.2 µM (inactive).
Take `CC(=O)NC(CCCCNC(=O)OC(C)(C)C)C(=O)O` (stereo unspecified): the GI50 is 26.1 µM (inactive) in assay [19]; > 100 µM (inactive) in assay [1]; > 100 µM (inactive) in assay [2]; > 100 µM (inactive) in assay [3]; > 100 µM (inactive) in assay [4]; > 100 µM (inactive) in assay [5]. The GI50 in [6], in assay [7], in assay [9], in assay [10], in assay [11] and in assay [12] was > 100 µM (inactive) throughout. The GI50 in assay [17] and in assay [18] was > 100 µM (inactive) throughout.
Consider `CN(C)C(=O)/N=C1\SC(=N\c2ccccc2)/C(=N/c2ccccc2)N1c1ccc([N+](=O)[O-])cc1`, for which the GI50 in [19] was > 100 µM (inactive); in assay [1] it was > 100 µM (inactive); in assay [2], > 100 µM (inactive); in assay [3], 61.9 µM (inactive); in [4], > 100 µM (inactive); in assay [5], > 100 µM (inactive). In addition, the GI50 in [6], in [7], in assay [8], in assay [9], in assay [10] and in assay [11] was > 100 µM (inactive) in each case. The GI50 in assay [12] is > 100 µM (inactive); in [13] it was > 100 µM (inactive); in assay [14], > 100 µM (inactive); in [15], > 100 µM (inactive); in [16], 41.6 µM (inactive).
`CC(C)(C)[Si](C)(C)OCCCC#CCO`: the GI50 in [19] was > 100 µM (inactive); in [1], 38.7 µM (inactive); in [2] it was > 100 µM (inactive); in assay [4], > 100 µM (inactive); in assay [5], 98.2 µM (inactive); in assay [6], > 100 µM (inactive). Besides, the GI50 was 92.7 µM (inactive) in assay [7]; > 100 µM (inactive) in [8]; > 100 µM (inactive) in assay [9]; > 100 µM (inactive) in assay [10]; 64.9 µM (inactive) in [12]; > 100 µM (inactive) in assay [20]. The GI50 in assay [13], in assay [14], in [15], in assay [16], in assay [17] and in [18] was > 100 µM (inactive) throughout.
`Cc1cn(C2CC(O)C(Cn3cc(Cn4nc(Br)c(=O)[nH]c4=O)nn3)O2)c(=O)[nH]c1=O` (stereo unspecified): the GI50 is > 100 µM (inactive) in assay [19]; 0.332 µM (active) in assay [1]; > 100 µM (inactive) in assay [2]; > 100 µM (inactive) in assay [3]; > 100 µM (inactive) in [6]; > 100 µM (inactive) in assay [7]. Moreover, the GI50 in [8], in assay [11], in [12], in assay [20], in [13] and in assay [14] was > 100 µM (inactive) in each case. The GI50 in assay [15], in assay [16], in [17] and in [18] was > 100 µM (inactive) each time.
Consider `COC1CCC(CO)OO1` (stereo unspecified), for which the GI50 is 13.1 µM (inactive) in [19]; 13.9 µM (inactive) in assay [1]; 53.6 µM (inactive) in assay [2]; 9.64 µM (inactive) in [3]; 26.4 µM (inactive) in [4]; 4.73 µM (inactive) in assay [5]. Also, the GI50 in [6] was 47.9 µM (inactive); in [7], 33.9 µM (inactive); in [8] it was 18.8 µM (inactive); in assay [9], 24.7 µM (inactive); in assay [10] it was 12.9 µM (inactive); in assay [12] it was 19.1 µM (inactive). Further, the GI50 was 27.7 µM (inactive) in [20]; 47.9 µM (inactive) in assay [13]; > 100 µM (inactive) in assay [14]; 43.9 µM (inactive) in assay [16]; 45.2 µM (inactive) in assay [18].
As to `Clc1ccc(C2SCc3nc4ccccc4n32)cc1` (stereo unspecified), the GI50 was 20.9 µM (inactive) in assay [19]; 23.2 µM (inactive) in assay [1]; 16.5 µM (inactive) in assay [2]; 14.5 µM (inactive) in assay [4]; 15.2 µM (inactive) in assay [5]; 18.5 µM (inactive) in assay [6]. Besides, the GI50 in assay [7] is 18 µM (inactive); in [8], 10.9 µM (inactive); in assay [9], 28.9 µM (inactive); in assay [10] it was 14.4 µM (inactive); in [12] it was 14.9 µM (inactive); in assay [20] it was 22.6 µM (inactive). In addition, the GI50 is 16 µM (inactive) in assay [13]; 25.4 µM (inactive) in assay [14]; 17.1 µM (inactive) in assay [15]; 4.88 µM (inactive) in [16]; 33.3 µM (inactive) in assay [17].
For `COc1ccc(NC(=S)NNC(=O)c2nsc3ccccc23)cc1`, the GI50 in assay [2] is 43.9 µM (inactive); in [3] it was 43.5 µM (inactive); in assay [4] it was 35.1 µM (inactive); in assay [5], 30.9 µM (inactive); in [6], 17.8 µM (inactive); in assay [7] it was 24.5 µM (inactive). Moreover, the GI50 in assay [8] was 41.8 µM (inactive); in assay [9] it was 33.5 µM (inactive); in [12], 22.3 µM (inactive); in assay [20], 28.3 µM (inactive); in assay [13], 25.1 µM (inactive); in [15], 31.8 µM (inactive). In addition, the GI50 in assay [16] was 24.9 µM (inactive); in assay [17] it was 48.4 µM (inactive); in [18] it was 36 µM (inactive).
